Converted amounts (≈) assume the structure as drawn.
Assays:
[1] = Plasma stability assay, mouse plasma; assay type: in vitro ADME; conditions: Method 1 (5 μM)
Experimental: From stock solution of compound in 10 mM DMSO, a working solution of 1 mM is prepared by diluting the compound in DMSO. To 398 μL of plasma pre-warmed at 37° C. for 15 minutes), 2 μL of working solution of compound is added, resulting in a final concentration of 5 μM (0.5% DMSO) for the compound. The sample is then incubated at 37° C. Aliquot is withdrawn at specified time-points (0, 15, 30, 60 and 120 mins). The reaction is stopped by addition of 450 μL cold acetonitrile containing internal standard (IS). […] Aliquots of the supernatant is analysed using LC-MS/MS. The percent remaining of the compound at each time point is calculated with respect to the control sample (0 min time-point).
A working solution of compound (500 μM) is prepared in DMSO (100%). To 735 μL of plasma, 15 μL of working solution of compound is added—resulting in a final concentration of 10 μM (2% DMSO) for the compound. The sample is then incubated at 37° C. Aliquot is withdrawn at time-points—0, 15, 30, 60, 90 and 120 mins. The reaction is stopped by using chilled acetonitrile containing internal standard (IS). The samples are centrifuged and the supernatants analyzed using LC-MS/MS. The percent remaining of the compound at each time point is calculated with respect to the control sample (0 min time-point).

[2] = Sprague-Dawley rat pharmacokinetics, IV and PO cassette dosing; assay type: in vivo
Outline: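 Male Sprague-Dawley rats (2 per arm) given up to 5 compounds in cassette, 1 mg/kg IV and 5 mg/kg PO, formulated in 5% DMSO/40% PEG-400/55% water. Plasma from serial blood samples was acetonitrile-precipitated and analysed by LC/MS/MS against matrix-matched standard curves.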

[3] = Thermodynamic solubility in FaSSIF pH 6.5 buffer; assay type: physicochemical; conditions: FaSSIF buffer, 25 °C, pH 6.5, fassif, thermodynamic from solid, Method 1 (UV-vis, 25° C., 24 hrs)
Experimental: FaSSIF v2 buffer is freshly prepared prior to use according to the suppliers' instructions and the pH adjusted to 6.5 using 1 M NaOH or 1 M HCl as required. From 1 mM working solution of test compound in DMSO, the λmax of the test compound is determined by scanning from 200 nm to 700 nm, in 1 nm steps with an EPOCH UV/Visible spectrophotometer (Biotek Instruments Inc.). A 12-point standard curve of compound concentration versus absorption at λmax is generated via two-fold serial dilutions of the 1 mM working solution with DMSO. Approximately 1 mg of test compound is accurately weighed into an Eppendorf tube and the appropriate volume of FaSSIF buffer is added to make a nominal concentration of 1 mg/mL. The tube is incubated on a rotator at 20 rpm, 25° C. for 24 hrs. Samples are then filtered using 0.45 μm filters (Sartorious, CAT #1776C) and the filtrate subjected to UV-vis spectroscopy analysis. The absorption at λmax is compared to the standard curve to determine the concentration of compound in solution after 24 hours.
FaSSIF buffer was prepared according to the suppliers' instructions and the pH adjusted to 6.5 using 1 M NaOH or 1 M HCl as required. […] A stir stick was added to each vial and vials sealed with a moulded PTDE/SIL 96-well plate cover. The plate was shaken at 25° C. at 1,100 rpm using an Eppendorf Thermomixer Comfort plate shaker. The plates were filtered using a vacuum manifold and diluted with a mixture of H2O and acetonitrile containing internal standard. The concentration of the test compound in the filtrate was determined by LCMS analysis with reference to the internal standards to determine the solubility in the buffer.

## CNC(=O)c1[nH]c(C(=O)NC2CCC2)cc1O[C@@H](C)c1ccccc1 (stereo in doubt) [Example 101, N^5-cyclobutyl-N^2-methyl-3-(1-phenylethoxy)-1H-pyrrole-2,5-dicarboxamide]
[1]
  Plasma Stability (% remaining at 120 minutes), Mouse: >99%
[2]; PO 5 mg/kg, Method 1
  PO F: 66%
[2]; male, Sprague-Dawley, rat, plasma, iv, 1 mg/kg, IV 1 mg/kg, Method 1, read-out: IV T1/2 (converted)
  half-life: 54 min
[3]
  solubility thermodynamic at 24 h: 193 µM (≈ 65.9 µg/mL)

From patent publication US20250263370A1 (Tay Therapeutics Limited, priority 2022, published 2025)
